The source of these data is patent publication US8962657B2, “Aryl derivatives and uses thereof” (Jacobus Pharmaceutical Company, Inc., priority 2012, dated 2015).

Like-named read-outs stand apart in the source and are kept apart here. Marks after values point to notes of the source that are not given here.

Test [1] relates to P. falciparum strain W2 (resistant to chloroquine and pyrimethamine). Nature of the test: [3H]-hypoxanthine growth inhibition assay, P. falciparum W2. Format: cell-based. The note with it: Plasmodium falciparum. How it is done: (§1) The potential for antimalarial activity against Plasmodium falciparum was determined by measuring the incorporation of tritiated hypoxanthine into parasitized red blood cells.
(§2) Stock solutions of the test compounds and the reference drug chloroquine (CQ) (Sigma Chemicals C-6628, Lot #059H0919) were prepared in silanized glass vials with AquaSil™ (Pierce, USA) to minimize absorption of the compounds to glassware. All test compounds were dissolved in DMSO (Sigma Cat No. # D8418) to 1 mM concentration, whereas CQ was dissolved in 50% methanol at a concentration of 1.6 mg/ml (base). Stock solutions were stored at −20° C.
(§3) The P. falciparum laboratory adapted strains utilized in this project (Table 1) were in vitro cultured and routinely maintained in RPMI-1640-LPLF complete medium, which contained low concentrations of para-amino benzoic acid (0.0005 mg/L) and folic acid (0.01 mg/L).
(§4) The low concentration of folic acid in RPMI-1640-LPLF prevents inhibition of the compound if its activity targets the parasite's folate metabolic pathway. Parasites were cultured in human red blood cells (RBCs) in vitro at 37° C. in special gas mixture (5% O2, 5% CO2 and 90% N2) as described Trager and Jensen (1979 Science 193:673-675).
(§5) Base cultivation medium consisted of 10.4 g/L RPMI-1640-LPLF powder (Gibco BRL), 5.97 g/L HEPES buffer (MP Biomedicals, USA), 2.0 g/L D-glucose (BDH chemicals, Australia), 0.05 g/L hypoxanthine (Sigma, USA) and 40 mg/L gentamycin (Pfizer, Australia). The pH of the medium was adjusted to 6.9 and the solution was filtered using 0.2 μm pore size (AcroCap, Gelman Science, USA). […] For [^3H]-hypoxanthine inhibition growth assay, RPMI-1640-LPLF complete medium which lacked [^3H]-hypoxanthine ([^3H]-RPMI-1640-LPLF) was used to prevent uptake of hypoxanthine by parasites, as radioactive hypoxanthine uptake is measured as a surrogate marker of growth. […]
(§6) Red blood cells (RBC) were required for P. falciparum parasites to proliferate in vitro. […] Following the final wash, the haematocrit was measured as the percent of RBC to total culture volume. […]

For test [2], the system named is P. falciparum strain D6 (sensitive to chloroquine and pyrimethamine). The experiment in a line: [3H]-hypoxanthine growth inhibition assay, P. falciparum D6. Format: cell-based. The note with it: Plasmodium falciparum. How it is done:
as §1, §2, §3, §4, §5, §6

The test system of test [3] is Plasmodium berghei (KBG-173 strain). The experiment in a line: Plasmodium berghei assay in vivo (modified Thompson Test), survival of infected mice. On the set-up: species or system Charles River CD-1 mice. Conditions: for Average Days Survival: 31 day experiment. On the procedure: In vivo antimalarial activity was tested in male or female Charles River CD-1 mice that were 4-5 weeks old and weighed 20-25 g They were housed in groups of 3 or 4 in standard plastic cages with wire tops, Bed-o-cob® bedding, 12 hr/day of light, and maintained at 75° F. They were fed a standard Ralston Purina mouse chow and the cages and bottles were changed twice a week. Test compounds were ground in a mortar and pestle and diluted with enough vehicle to give a volume of 10 mL/kg of mouse weight. The oral doses were prepared in 0.5% hydroxyethylcellulose (Union Carbide Corp. WP 4400)/0.1% Tween-80 (Fisher Scientific T164-500). The amount of drug was calculated on the free base weight. The mice were infected intraperitoneally on day 0 with 5×10^4 erythrocytes parasitized with Plasmodium berghei (KBG-173 strain) from a donor mouse having a parasitemia between 5-10%. On days 3, 4 and 5 the test compounds were administered bid, spaced 6 hr apart, by oral gavage to the mice. Activity was measured by survival, with full activity defined as all animals living at day 31. Partial activity is defined as days of increased survival versus the infected non-treated controls. This in vivo model is a modification of the Thompson Test. For further description see Ager, A. L, Jr. Rodent Malaria Models. In Handbook of Experimental Pharmacology: Antimalarial Drugs. 1. 68/1; Peters, W., Richards, W. H. G., Eds.: Springer-Verlag: Berlin, 1984, pp. 231-33.

Where [4] appears, read: 4 mg/kg/day, oral bid on days 3, 4 and 5.
Where [5] appears, read: 16 mg/kg/day, oral bid on days 3, 4 and 5.
The mark [6] stands for this setting: 64 mg/kg/day, oral bid on days 3, 4 and 5.
Where [7] appears, read: Plasmodium berghei, po, 744 h, read-out: Number of mice alive at day 31.
The mark [8] stands for this setting: P. falciparum W2, [3H]-hypoxanthine incorporation, read-out: W2 IC50.
The mark [9] stands for this setting: P. falciparum D6, [3H]-hypoxanthine incorporation, read-out: D6 IC50.
The mark [10] stands for this setting: Plasmodium berghei, 744 h, 16 mg/kg/day, oral bid on days 3, 4 and 5, read-out: Number of mice alive at day 31 (converted).

For `CCN(CC)CCCC(C)Nc1ccnc2cc(Cl)ccc12` (stereo not drawn) [Chloroquine, chloroquine, reference compound], the IC50 in test [1] (W2, read-out: W2 IC50) was found to be 133 nM; in test [2] (D6, read-out: D6 IC50) it was 12 nM. Besides, the “Average Days Survival” value in test [3] (setting [4]) is 10.3 days; in test [3] (setting [5]), greater than 18.8 days; in test [3] (setting [6]), greater than 18.6 days; in test [3] (128 mg/kg/day, oral bid on days 3, 4 and 5) it was greater than 21.3 days. For the same molecule, the responders at 4 mg/kg in test [3] (setting [7]) was found to be 0%. Further, in test [3] (setting [7]), the responders at 16 mg/kg was 14.3%. In addition, the responders at 64 mg/kg in test [3] (setting [7]) was 28.6%. Also, the responders at 128 mg/kg in test [3] (setting [7]) is 57.1%.
Turning to `CC(C)(C)NCc1cc(C(C)(C)C)cc(-c2ccc(Cl)c(C(F)(F)F)c2)c1O.Cl` [Example 23, 5-(tert-Butyl)-3-((tert-butylamino)methyl)-4′-chloro-3′-(trifluoromethyl)-[1,1′-biphenyl]-2-ol hydrochloride], the IC50 is 9 nM in test [1] (setting [8]) and 21 nM in test [2] (setting [9]). In addition, the “Average Days Survival” value in test [3] (1 mg/kg/day, oral bid on days 3, 4 and 5) is greater than 15.3 days; in test [3] (2 mg/kg/day, oral bid on days 3, 4 and 5), greater than 7 days; in test [3] (setting [4]), >31* Days; in test [3] (8 mg/kg/day, oral bid on days 3, 4 and 5), >31* Days; in test [3] (setting [5]), >31* Days; in test [3] (32 mg/kg/day, oral bid on days 3, 4 and 5), >31* Days. Besides, the responders at 1 mg/kg in test [3] (Plasmodium berghei, 744 h, 1 mg/kg/day, oral bid on days 3, 4 and 5, read-out: Number of mice alive at day 31 (converted)) is 42.9%. Also, the responders at 2 mg/kg in test [3] (Plasmodium berghei, 744 h, 2 mg/kg/day, oral bid on days 3, 4 and 5, read-out: Number of mice alive at day 31 (converted)) is 85.7%. The responders at 4 mg/kg in test [3] (Plasmodium berghei, 744 h, 4 mg/kg/day, oral bid on days 3, 4 and 5, read-out: Number of mice alive at day 31 (converted)) was 100%. Besides, the responders at 8 mg/kg in test [3] (Plasmodium berghei, 744 h, 8 mg/kg/day, oral bid on days 3, 4 and 5, read-out: Number of mice alive at day 31 (converted)) was 100%. Also, the responders at 16 mg/kg in test [3] (setting [10]) is 100%. For the same molecule, the responders at 32 mg/kg in test [3] (Plasmodium berghei, 744 h, 32 mg/kg/day, oral bid on days 3, 4 and 5, read-out: Number of mice alive at day 31 (converted)) was 100%.
As for `CC(C)(C)NCc1cc(-c2ccc(Cl)cc2)nc(-c2ccc(Cl)cc2)c1O.Cl` [Example 56, 4-((tert-Butylamino)methyl)-2,6-bis(4-chlorophenyl)pyridin-3-ol hydrochloride], the IC50 turned out to be 12 nM in test [1] (setting [8]) and 32 nM in test [2] (setting [9]). In addition, the “Average Days Survival” value in test [3] (setting [5]) is greater than 19.3 days; in test [3] (setting [6]), greater than 20 days. The responders at 16 mg/kg in test [3] (setting [10]) is 71.4%. Moreover, in test [3] (Plasmodium berghei, 744 h, 64 mg/kg/day, oral bid on days 3, 4 and 5, read-out: Number of mice alive at day 31 (converted)), the responders at 64 mg/kg was 85.7%.

By IC50 is commonly meant the point on the concentration scale where inhibition reaches its midpoint.
